Literature values, collected in publication PMC11730002 (Turkish Journal of Pharmaceutical Sciences, 2025).

Legend:
lipase = conditions: read-out: Lipase inhibitory activity IC50
pancreatic lipase = target: T1, pancreatic lipase (Sus scrofa, UniProt P00591); conditions: read-out: Pancreatic lipase inhibition IC50; in vitro study
T1 sequence (P00591 1-450): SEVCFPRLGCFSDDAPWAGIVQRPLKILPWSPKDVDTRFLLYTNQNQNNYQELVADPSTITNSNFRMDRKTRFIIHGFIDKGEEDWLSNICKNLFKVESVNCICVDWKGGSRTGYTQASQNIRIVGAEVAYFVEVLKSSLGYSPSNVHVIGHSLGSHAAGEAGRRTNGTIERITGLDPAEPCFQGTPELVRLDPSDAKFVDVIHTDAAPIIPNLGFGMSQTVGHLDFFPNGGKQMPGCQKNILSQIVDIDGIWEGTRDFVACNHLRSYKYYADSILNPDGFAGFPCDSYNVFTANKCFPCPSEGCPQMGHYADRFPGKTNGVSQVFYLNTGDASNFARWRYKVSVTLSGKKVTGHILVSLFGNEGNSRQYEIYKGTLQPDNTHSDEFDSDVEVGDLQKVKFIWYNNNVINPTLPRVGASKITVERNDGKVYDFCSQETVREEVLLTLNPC

- IC50 (lipase): 62.8 ± 2.7 µM
- IC50 (pancreatic lipase): 347 µM
SMILES: O=C(/C=C/c1ccc(O)c(O)c1)O[C@H](Cc1ccc(O)c(O)c1)C(=O)O [Rosmarinic acid]
